From patent publication US20240239788A1, “SMALL MOLECULE INHIBITORS OF KRAS G12D MUTANT” (Merck Sharp & Dohme LLC, priority 2021, published 2024)
Structures can show the parent of a compound that is named as a salt.

Columns and labels:
[1] = target: KRAS protein containing G12D mutation (Homo sapiens (Human), UniProt P01116, G12D); experiment: SOS-catalyzed nucleotide exchange assay (GNE), TR-FRET; format: biochemical; conditions: biotinylated KRAS G12D, SOS and GTP, 60-minute incubation
Description: Compounds are added to this complex and then after a 60-minute incubation time the mixture is treated with SOS and unlabeled GTP. Small molecule inhibitors stabilize the Bodipy-GDP complex whereas the untreated protein rapidly exchanges Bodipy-GDP for unlabeled GTP resulting in reduced TR-FRET signal.
This solution is referred to as biotinylated KRAS G12D stock solution.

[2] = system: AsPC-1 cells containing homozygous KRAS-G12D activating mutation; experiment: Cellular phospho-ERK assay (Examples 1a-106); format: cell-based; conditions: AsPC-1 cells, 2 hours, ratio of p-Erk vs total Erk, read-out: IC50 (nM) pERK (Cell)
Source text: 5% CO? overnight. […] Assay plates were read on a EnVision Multimode Plate Reader (PerkinElmer) and the ratio of p-Erk vs total Erk in each well was used as the final readout.

[3] = system: AsPC-1 cells containing homozygous KRAS-G12D activating mutation; experiment: Cellular phospho-ERK assay with 10% FBS (Examples 107a-256); format: cell-based; conditions: Homo sapiens, ASPC1, 2 h, read-out: IC50 (nM) pERK (cell with FBS 10%), AsPC-1 cells, 10% fetal bovine serum, 2 hours, ratio of p-Erk vs total Erk
Description: 5% CO2 for 2 hours. […] Assay plates were read on a EnVision Multimode Plate Reader (PerkinElmer) and the ratio of p-Erk vs total Erk in each well was used as the final readout.

Chain of KRAS protein containing G12D mutation (P01116 other isoform, or with tags, fused parts or gaps G12D (already in the parent)): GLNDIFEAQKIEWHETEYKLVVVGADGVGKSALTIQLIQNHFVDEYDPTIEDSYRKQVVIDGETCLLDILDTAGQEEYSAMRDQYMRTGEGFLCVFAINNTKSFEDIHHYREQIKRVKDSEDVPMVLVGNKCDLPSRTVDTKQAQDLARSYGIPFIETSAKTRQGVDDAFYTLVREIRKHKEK

| Structure (SMILES) | IC50 [1] | IC50 [2] | IC50 ([2]; TFA) | IC50 [3] |
| --- | --- | --- | --- | --- |
| CN(C)C[C@@]1(COc2nc(N3C[C@H]4CC[C@@](C)(C3)N4)c3cc(Cl)c(-c4c(F)cc(F)c5ccc(N)nc45)c(F)c3n2)CC1(F)F (single isomer, unassigned) [92a] | 11100 nM | 13200 nM |  |  |
| C#Cc1cccc2cc(O)cc(-c3c(F)cc4c(N5C[C@H]6CC[C@@](C)(C5)N6)nc(OCC5(CN6CC[C@@H](F)C6)CC5)nc4c3F)c12 (single isomer, unassigned) [103b, TFA] | 458 nM |  | 2480 nM |  |
| Cc1c(Cl)cc2[nH]nc(C)c2c1-c1c(F)cc2c(N3CC4CCC(C3)N4)nc(OCC3(CN4CC[C@@H](F)C4)CC3)nc2c1F (single isomer, unassigned) [Ex 71a] | 18.9 nM | 505 nM |  |  |
| Cc1c(Cl)cc2[nH]nc(C)c2c1-c1c(F)cc2c(N3CC4CCC(C3)N4)nc(OCC3(CN4CC[C@@H](F)C4)CC3)nc2c1F (single isomer, unassigned) [Ex 71b] | 1340 nM | 4240 nM |  |  |
| Cc1cc2[nH]ncc2c(-c2c(F)cc3c(N4C[C@H]5CC[C@@](C)(C4)N5)nc(OC[C@]4(CN(C)C)CC4(F)F)nc3c2F)c1C(F)(F)F (single isomer, unassigned) [Ex 76b] | 597 nM | 4530 nM |  |  |
| Cc1cc2[nH]ncc2c(-c2c(F)cc3c(N4C[C@H]5CC[C@@](C)(C4)N5)nc(OCC4(CN5CC[C@@H](F)C5)CC4)nc3c2F)c1C(F)(F)F (single isomer, unassigned) [Ex 80b] | 1320 nM | 5970 nM |  |  |
| C#Cc1cccc2nc(N)nc(-c3c(F)cc4c(N5C[C@H]6CC[C@@H](C5)N6)nc(OC[C@@]56CCCN5C[C@H](F)C6)nc4c3F)c12 [compound 235, 4′-((1R,5S)-3,8-diazabicyclo[3.2.1]octan-3-yl)-5-ethynyl-6′,8′-difluoro-2′-(((2R,7aS)-2-fluorotetrahydro-1H-pyrrolizin-7a(5H)-yl)methoxy)-[4,7′-biquinazolin]-2-amine] | 91.7 nM |  |  | 910 nM |
| [2H]c1c([2H])c(C#C)c2c(-c3c(F)cc4c(N5C[C@H]6CC[C@@](C)(C5)N6)nc(OC[C@@]56CCCN5C[C@H](F)C6)nc4c3F)c([2H])c([2H])c([2H])c2c1[2H] [compound 241, 7-(8-ethynylnaphthalen-1-yl-2,3,4,5,6,7-d6)-6,8-difluoro-2-(((2R,7aS)-2-fluorotetrahydro-1H-pyrrolizin-7a(5H)-yl)methoxy)-4-((1S,5R)-1-methyl-3,8-iazabicyclo[3.2.1]octan-3-yl)quinazoline, 2TFA] | 8.63 nM |  |  | 1760 nM |
| C[C@]12CCC(CN(c3nc(OC[C@@]45CCCN4C[C@H](F)C5)nc4c(F)c(-c5cc(O)cc(Cl)c5OC(F)(F)F)c(F)cc34)C1)N2 [compound 244, 3-chloro-5-(6,8-difluoro-2-(((2RS,7aS)-2-fluorotetrahydro-1H-pyrrolizin-7a(5H)-yl)methoxy)-4-((1S,5R)-1-methyl-3,8-diazabicyclo[3.2.1]octan-3-yl)quina-zolin-7-yl)-4-(trifluoromethoxy)phenol] | 3.7 nM |  |  | 161 nM |
| Cc1cc2[nH]nc(C#N)c2c(-c2c(F)cc3c(N4C[C@H]5CC[C@@H](C4)N5)nc(OC[C@@]45CCCN4C[C@H](F)C5)nc3c2F)c1C(F)F [compound 254, 4-(4-((1R,5S)-3,8-diazabicyclo[3.2.1]octan-3-yl)-6,8-difluoro-2-(((2R,7aS)-2-fluorotetrahydro-1H-pyrrolizin-7a(5H)-yl)methoxy)quinazolin-7-yl)-5-(difluoromethyl)-6-methyl-1H-indazole-3-carbonitrile] | 0.77 nM |  |  | 80.3 nM |
| Cc1cc2[nH]nc(C#N)c2c(-c2c(F)cc3c(N4C[C@H]5CC[C@@H](C4)N5)nc(OC[C@@]45CCCN4C[C@H](F)C5)nc3c2F)c1OC(F)(F)Cl [compound 255, 4-(4-((1R,5S)-3,8-diazabicyclo[3.2.1]octan-3-yl)-6,8-difluoro-2-(((2R,7aS)-2-fluorotetrahydro-1H-pyrrolizin-7a(5H)-yl)methoxy)quinazolin-7-yl)-5-(chlorodifluoromethoxy)-6-methyl-1H-indazole-3-carbonitrile] | 0.79 nM |  |  | 58.9 nM |
